13 molecules from patent US9567324B2, “Substituted nicotinamide derivatives as kinase inhibitors” (Allergan, Inc., priority 2013, dated 2017) can be followed below.

In assay [1] the target is PDGFRβ (purified cytoplasmic domain PDGFR-b protein) (Homo sapiens (Human), UniProt P09619). As to the kind of experiment: PDGFRβ Kinase Assay. The conditions noted are these: for IC50: 36 μM ATP, poly-Glu-Tyr (4:1) substrate, ELISA read-out, read-out: PDGFRβ Enzyme Assay (IC50 nM). The assay is classed as biochemical. The protocol:
Biochemical PDGFRβ kinase assays were performed in 96 well microtiter plates that were coated overnight with 75 μg of poly-Glu-Tyr (4:1) in 10 mM Phosphate Buffered Saline (PBS), pH 7.4. The coated plates were washed with 2 mls per well PBS+0.05% Tween-20 (PBS-T), blocked by incubation with PBS containing 1% BSA, then washed with 2 mls per well PBS-T prior to starting the reaction. Reactions were carried out in 100 μL reaction volumes containing 36 μM ATP in kinase buffer (50 mM Hepes buffer pH 7.4, 20 mM MgCl2, 0.1 mM MnCl2 and 0.2 mM Na3VO4). Test compounds were reconstituted in 100% DMSO and added to the reaction to give a final DMSO concentration of 5%. Reactions were initiated by the addition 20 ul per well of kinase buffer containing 200-300 ng purified cytoplasmic domain PDGFR-b protein (Millipore). Following a 60 minute incubation at 30° C., the reactions were washed 2 mls per well PBS-T. 100 μl of a monoclonal anti-phosphotyrosine antibody-peroxidase conjugate diluted 1:10,000 in PBS-T was added to the wells for 30 minutes. Following a 2 mls per well wash with PBS-Tween-20, 100 μl of O-Phenylenediamine Dihydrochloride in phosphate-citrate buffer, containing urea hydrogen peroxide, was added to the wells for 7-10 minutes as a colorimetric substrate for the peroxidase. The reaction was terminated by the addition of 100 μl of 2.5N H2SO4 to each well and read using a microplate ELISA reader set at 492 nm. IC50 values for compound inhibition were calculated directly from graphs of optical density (arbitrary units) versus compound concentration following subtraction of blank values.

A further assay addresses PDGFRβ (Homo sapiens (Human), UniProt P09619). As to the kind of experiment: PDGFRβ Cellular Assay (FLIPR, PDGF-induced intracellular calcium in NHDF-Ad). The format is cell-based. As to conditions: PDGF-BB stimulation (30 ng/mL), Fluo-4 FLIPR. The protocol: Automated FLIPR (Fluorometric Imaging Plate Reader) technology was used to screen for inhibitors of PDGF-induced increases in intracellular calcium levels in fluorescent dye loaded […] cells. NHDF-Ad (Normal Human Dermal Fibroblasts, Adult; Lonza) were seeded in 384-well fibronectin coated black-walled plates overnight @ 37° C./5% CO2. Cells were loaded with calcium indicator Fluo-4 for 45 minutes at 37° C. Cells were washed 2 times (E1×405, Biotek Instruments) to remove extracellular dye. For screening, cells were pre-incubated with test agents for 30 minutes, at a single concentration (10 uM) or at concentrations ranging from 0.0001 to 10.0 uM followed by PDGF-BB stimulation (30 ng/mL). Changes in fluorescence at 516 nm were measured simultaneously in all 384 wells using a cooled CCD camera. Data were generated by determining max-min fluorescence levels for unstimulated, stimulated, and drug treated samples. IC50 values for test compounds were calculated from % inhibition of PDGF-BB stimulated responses in the absence of inhibitor.
(A change in cytosolic calcium serves as a functional read-out for many receptors and channels.)

The term IC50 denotes the concentration needed to halve the response being measured.

The structures appear in SMILES notation.

Chain of PDGFRβ (P09619 33-1106): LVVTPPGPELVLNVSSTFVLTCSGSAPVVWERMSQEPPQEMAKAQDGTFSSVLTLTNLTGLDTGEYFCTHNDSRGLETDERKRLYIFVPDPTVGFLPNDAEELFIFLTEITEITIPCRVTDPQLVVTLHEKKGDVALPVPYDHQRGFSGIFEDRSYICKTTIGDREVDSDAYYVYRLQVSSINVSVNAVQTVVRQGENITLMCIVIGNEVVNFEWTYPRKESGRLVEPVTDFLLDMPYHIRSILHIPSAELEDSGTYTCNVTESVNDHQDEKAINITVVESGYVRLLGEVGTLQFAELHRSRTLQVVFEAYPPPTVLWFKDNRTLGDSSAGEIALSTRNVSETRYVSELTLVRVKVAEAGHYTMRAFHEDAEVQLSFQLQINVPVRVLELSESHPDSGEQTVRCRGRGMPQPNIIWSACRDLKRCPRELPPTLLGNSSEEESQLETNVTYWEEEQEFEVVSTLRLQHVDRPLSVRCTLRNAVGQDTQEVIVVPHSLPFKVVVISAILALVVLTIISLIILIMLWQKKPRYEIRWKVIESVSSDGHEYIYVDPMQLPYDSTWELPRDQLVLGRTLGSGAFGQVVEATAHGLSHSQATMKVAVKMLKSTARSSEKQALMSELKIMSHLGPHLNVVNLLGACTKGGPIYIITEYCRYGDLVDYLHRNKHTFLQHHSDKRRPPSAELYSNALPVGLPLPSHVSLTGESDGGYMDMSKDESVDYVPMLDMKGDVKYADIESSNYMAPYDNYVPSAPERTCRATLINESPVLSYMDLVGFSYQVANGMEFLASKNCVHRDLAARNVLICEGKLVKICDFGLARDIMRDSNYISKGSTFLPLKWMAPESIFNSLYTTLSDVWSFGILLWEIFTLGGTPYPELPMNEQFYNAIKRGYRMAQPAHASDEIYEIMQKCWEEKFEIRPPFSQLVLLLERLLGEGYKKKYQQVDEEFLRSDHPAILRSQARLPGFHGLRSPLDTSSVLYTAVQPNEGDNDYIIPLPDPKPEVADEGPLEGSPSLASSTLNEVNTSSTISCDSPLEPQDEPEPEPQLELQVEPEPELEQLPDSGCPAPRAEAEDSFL
Chain of PDGFRβ (purified cytoplasmic domain PDGFR-b protein) (P09619 554-1106): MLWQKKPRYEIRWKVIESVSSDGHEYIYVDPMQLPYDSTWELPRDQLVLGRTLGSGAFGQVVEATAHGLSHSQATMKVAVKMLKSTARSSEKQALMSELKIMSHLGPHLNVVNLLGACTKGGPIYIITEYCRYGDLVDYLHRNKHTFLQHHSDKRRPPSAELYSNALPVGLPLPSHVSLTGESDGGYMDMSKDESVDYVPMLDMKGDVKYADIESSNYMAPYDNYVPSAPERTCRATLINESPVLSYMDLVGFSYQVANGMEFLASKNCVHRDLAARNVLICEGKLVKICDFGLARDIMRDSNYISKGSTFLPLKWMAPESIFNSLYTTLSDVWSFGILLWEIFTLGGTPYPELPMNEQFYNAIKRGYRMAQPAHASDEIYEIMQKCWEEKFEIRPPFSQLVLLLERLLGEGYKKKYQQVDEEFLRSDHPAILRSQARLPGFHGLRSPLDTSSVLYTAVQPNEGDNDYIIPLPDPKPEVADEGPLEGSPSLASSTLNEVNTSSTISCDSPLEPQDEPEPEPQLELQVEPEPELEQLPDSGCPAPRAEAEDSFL

As to `Cc1ccoc1C(=O)Nc1cccc(C#Cc2cncc(C(=O)N=S3(=O)CCN(C(N)=O)CC3)c2)c1` [Example 3, 1-({[5-({3-[(3-Methyl-2-furoyl)amino]phenyl}ethynyl)pyridin-3-yl]carbonyl}imino)-1λ^4,4-thiazinane-4-carboxamide 1-oxide], the “activity/potency at the PDGFRβ receptor (in words)” value (from here on “activity/potency”) in assay [1] was “greatest potency”. As to `CCOC(=O)CNC(=O)N1CCS(=O)(=NC(=O)c2cncc(C#Cc3cccc(NC(=O)c4occc4C)c3)c2)CC1` [Example 11, Ethyl({[1-({[5-({3-[(3-methyl-2-furoyl)amino]phenyl}ethynyl)pyridin-3-yl]carbonyl}imino)-1-oxido-1λ^4,4-thiazinan-4-yl]carbonyl}amino)acetate], in assay [1], the “activity/potency” value is listed as “greatest potency”. As for `Cc1ccoc1C(=O)Nc1cccc(C#Cc2cc(C(=O)N=S3(=O)CCN(C(=O)OC(C)(C)C)CC3)cnc2N)c1` [Example 13, tert-Butyl 1-({[6-amino-5-({3-[(3-methyl-2-furoyl)amino]phenyl}ethynyl)pyridin-3-yl]carbonyl}imino)-1λ^4,4-thiazinane-4-carboxylate 1-oxide], the “activity/potency” value in assay [1] was “greatest potency”.

Regarding `Cc1ccc(F)c(C(=O)Nc2cccc(C#Cc3cc(C(=O)N=S4(=O)CCN(C(=O)OC(C)(C)C)CC4)cnc3N)c2)c1` [Example 16, tert-butyl 1-({[6-Amino-5-({3-[(2-fluoro-5-methylbenzoyl)amino]phenyl}ethynyl)pyridin-3-yl]carbonyl}imino)-1λ^4,4-thiazinane-4-carboxylate 1-oxide], in assay [1], the “activity/potency” value is listed as “greatest potency”.

In the case of `Cc1ccc(F)c(C(=O)Nc2cccc(C#Cc3cc(C(=O)N=S4(=O)CCNCC4)cnc3N)c2)c1` [Example 17, 6-Amino-5-({3-[(2-fluoro-5-methylbenzoyl)amino]phenyl}ethynyl)-N-(1-oxido-1λ^4,4-thiazinan-1-ylidene)nicotinamide], in assay [1], the “activity/potency” value was “greatest potency” and the IC50 was 7 nM. Consider `Cc1ccc(F)c(C(=O)Nc2cccc(C#Cc3cc(C(=O)N=S4(=O)CCN(C(N)=O)CC4)cnc3N)c2)c1` [Example 18, 1-({[6-Amino-5-({3-[(2-fluoro-5-methylbenzoyl)amino]phenyl}ethynyl)pyridin-3-yl]carbonyl}imino)-1λ^4,4-thiazinane-4-carboxamide 1-oxide], for which, in assay [1], the IC50 amounted to 7 nM. As to `Cc1ccoc1C(=O)Nc1cccc(C#Cc2cncc(C(=O)N=S3(=O)CCOCC3)c2)c1` [Example 19, 5-({3-[(3-methyl-2-furoyl)amino]phenyl}ethynyl)-N-(4-oxido-1,4λ^4-oxathian-4-ylidene)nicotinamide], the IC50 in assay [1] came out at 23 nM; on PDGFRβ, 19 nM. The like results for `Cc1ccoc1C(=O)Nc1cccc(C#Cc2cc(C(=O)N=S3(=O)CCOCC3)cnc2N)c1` [Example 20, 6-amino-5-({3-[(3-methyl-2-furoyl)amino]phenyl}ethynyl)-N-(4-oxido-1,4λ^4-oxathian-4-ylidene)nicotinamide] were, in that order, 51 nM and 31 nM. Regarding `Cc1ccc(F)c(C(=O)Nc2cccc(C#Cc3cc(C(=O)N=S4(=O)CCOCC4)cnc3N)c2)c1` [Example 21, 6-amino-5-({3-[(2-fluoro-5-methylbenzoyl)amino]phenyl}ethynyl)-N-(4-oxido-1,4λ^4-oxathian-4-ylidene)nicotinamide], the IC50 in assay [1] worked out at 24 nM.

Consider `Cc1ccc(F)c(NC(=O)c2cccc(C#Cc3cc(C(=O)N=S4(=O)CCOCC4)cnc3N)c2)c1` [Example 22, 6-amino-5-[(3-{[(2-fluoro-5-methylphenyl)amino]carbonyl}phenyl)ethynyl]-N-(4-oxido-1,4λ^4-oxathian-4-ylidene)nicotinamide], for which, at PDGFRβ, the IC50 worked out at 17 nM. As to `Nc1ncc(C(=O)N=S2(=O)CCOCC2)cc1C#Cc1cccc(C(=O)Nc2ccc(Cl)c(C(F)(F)F)c2)c1` [Example 23, 6-amino-5-{[3-({[4-chloro-3-(trifluoromethyl)phenyl]amino}carbonyl)phenyl]ethynyl}-N-(4-oxido-1,4λ^4-oxathian-4-ylidene)nicotinamide], in assay [1], the IC50 was found to be 13 nM. For the molecule `CC(C)(C)c1cc(NC(=O)c2cccc(C#Cc3cc(C(=O)N=S4(=O)CCOCC4)cnc3N)c2)no1` [Example 24, 6-amino-5-[(3-{[(5-tert-butylisoxazol-3-yl)amino]carbonyl}phenyl)ethynyl]-N-(4-oxido-1,4λ^4-oxathian-4-ylidene)nicotinamide], in assay [1], the “activity/potency” value is given as “best activity” and the IC50 came to 10 nM. Consider `COc1cccc(NC(=O)c2cccc(C#Cc3cc(C(=O)N=S4(=O)CCOCC4)cnc3N)c2)c1` [Example 25, 6-amino-5-[(3-{[(3-methoxyphenyl)amino]carbonyl}phenyl)ethynyl]-N-(4-oxido-1,4λ^4-oxathian-4-ylidene)nicotinamide], for which the IC50 in assay [1] is 19 nM.
